Measured values published in patent US8664245B2, “Fumarate salts of a histamine H3 receptor antagonist” (Sanofi, priority 2009, dated 2014).

Key:
Type in all cases: physicochemical
[1] = Dynamic Vapor Sorption (DVS) water sorption profile
Protocol: The water sorption profile of a compound of the invention is determined using a SMS Instruments Dynamic Vapor Sorption Analyzer (DVS) Model DVS-Advantage. Relative humidity (RH) and weight are calibrated using standards. The powder of the relevant compound of the invention is loaded and dried at 0% RH for 3 hours prior to starting the experiment. The RH is stepped from 0.1 to 94.4% in 11 steps. The specimen weight is considered constant at each step when percent mass change is less than 0.01% over a 5-minute interval with a minimum absolute equilibration time of 15 minutes and maximum equilibration time of 180 minutes.

[2] = Stability testing: storage at 60° C. and ambient RH for two weeks; settings: solid, ambient RH, 14 days
Protocol: Stability Testing 1. Storage at 60° C. and Ambient RH for Two Weeks.
Approximately 400 mg of the difumarate monohydrate salt was weighed into a scintillation vial and placed into an oven set to 60° C. The sample was tested for appearance, then diluted with ethanol to approximately 1 mg/mL and analyzed for related substances and optical enantiomer by HPLC.

[3] = Stability testing: storage at 60° C./80% RH for two weeks; settings: solid, 14 days
Protocol: 2. Storage at 60° C./80% RH and Ambient RH for Two Weeks.
A glass desiccation chamber was pre-equilibrated overnight with a saturated KBr solution to 79.3% RH within an […] oven. Approximately 400 mg of the difumarate monohydrate was weighed into a scintillation vial and placed into the chamber, which was then sealed to maintain the environment. Samples were tested for appearance, then diluted with ethanol to approximately 1 mg/mL and analyzed for related substances and optical enantiomer by HPLC.

[4] = Stability testing: storage at 80° C./80% RH for 4 days; settings: solid
Protocol: 3. Storage at 80° C./80% RH for 4 Days
A glass desiccation chamber was pre-equilibrated overnight with a saturated KBr solution to 79.3% RH within an 80° C. oven. Approximately 100 mg of the difumarate monohydrate salt was weighed into respective scintillation vials and these vials were placed into the chamber, which was then sealed to maintain the environment. The sample was tested on day 4 for appearance, then diluted with ethanol to approximately 1 mg/mL and analyzed by HPLC versus a control (time 0) sample.

## CN1CCC[C@H]1CCNS(=O)(=O)c1ccc2c(c1)CN(CC1CCCCC1)CC2.O=C(O)/C=C/C(=O)O [difumarate monohydrate salt, 2-(cyclohexylmethyl)-N-{2-[(2S)-1-methylpyrrolidin-2-yl]ethyl}-1,2,3,4-tetrahydroisoquinoline-7-sulfonamide difumarate monohydrate]
[1]; 0.6 % RH, 25° C.
  Change in Mass (%) - dry, Desorption: 0.0%
  Change in Mass (%) - dry, Sorption: 0.0%
[1]; 10.2 % RH, 25° C.
  Change in Mass (%) - dry, Desorption: 2.9%
  Change in Mass (%) - dry, Sorption: 2.8%
[1]; 19.6 % RH, 25° C.
  Change in Mass (%) - dry, Desorption: 2.9%
  Change in Mass (%) - dry, Sorption: 2.9%
[1]; 29.4 % RH, 25° C.
  Change in Mass (%) - dry, Desorption: 3.0%
  Change in Mass (%) - dry, Sorption: 3.0%
[1]; 38.5 % RH, 25° C.
  Change in Mass (%) - dry, Desorption: 3.0%
  Change in Mass (%) - dry, Sorption: 3.0%
[1]; 48.5 % RH, 25° C.
  Change in Mass (%) - dry, Desorption: 3.0%
  Change in Mass (%) - dry, Sorption: 3.0%
[1]; 57.5 % RH, 25° C.
  Change in Mass (%) - dry, Desorption: 3.1%
  Change in Mass (%) - dry, Sorption: 3.1%
[1]; 67.1 % RH, 25° C.
  Change in Mass (%) - dry, Desorption: 3.1%
  Change in Mass (%) - dry, Sorption: 3.1%
[1]; 77.0 % RH, 25° C.
  Change in Mass (%) - dry, Desorption: 3.2%
  Change in Mass (%) - dry, Sorption: 3.1%
[1]; 87.0 % RH, 25° C.
  Change in Mass (%) - dry, Desorption: 3.2%
  Change in Mass (%) - dry, Sorption: 3.2%
[1]; 94.2 % RH, 25° C.
  Change in Mass (%) - dry, Desorption: 3.3%
  Change in Mass (%) - dry, Sorption: 3.3%
[2]
  chemical stability (related substances and optical enantiomer by HPLC, appearance): stable in the solid state with a minimal increase in impurity levels and no observable change in appearance
  physical stability (physical form by XRPD and DSC-TGA): no observable change in physical form
[3]
  chemical stability (related substances and optical enantiomer by HPLC, appearance): stable in the solid state with a minimal increase in impurity levels and no observable change in appearance
  physical stability (physical form by XRPD and DSC-TGA): no observable change in physical form
[4]
  chemical stability (HPLC versus time 0 control, appearance): stable in the solid state with no observable chemical change

## CN1CCC[C@H]1CCNS(=O)(=O)c1ccc2c(c1)CN(CC1CCCCC1)CC2.O=C(O)/C=C/C(=O)O [hemifumarate dihydrate, 2-(cyclohexylmethyl)-N-{2-[(2S)-1-methylpyrrolidin-2-yl]ethyl}-1,2,3,4-tetrahydroisoquinoline-7-sulfonamide hemifumarate dihydrate]
[1]; 0.6 % RH, 25° C. (Table 8)
  Change in Mass (%) - dry, Desorption: 0.00%
  Change in Mass (%) - dry, Sorption: 0.00%
[1]; 10.1 % RH, 25° C.
  Change in Mass (%) - dry, Desorption: 0.56%
  Change in Mass (%) - dry, Sorption: 0.25%
[1]; 19.4 % RH, 25° C.
  Change in Mass (%) - dry, Desorption: 6.71%
  Change in Mass (%) - dry, Sorption: 3.53%
[1]; 29.0 % RH, 25° C.
  Change in Mass (%) - dry, Desorption: 6.85%
  Change in Mass (%) - dry, Sorption: 3.87%
[1]; 37.8 % RH, 25° C.
  Change in Mass (%) - dry, Desorption: 6.89%
  Change in Mass (%) - dry, Sorption: 6.50%
[1]; 47.7 % RH, 25° C.
  Change in Mass (%) - dry, Desorption: 6.97%
  Change in Mass (%) - dry, Sorption: 6.89%
[1]; 56.4 % RH, 25° C.
  Change in Mass (%) - dry, Desorption: 7.10%
  Change in Mass (%) - dry, Sorption: 7.01%
[1]; 65.7 % RH, 25° C.
  Change in Mass (%) - dry, Desorption: 7.21%
  Change in Mass (%) - dry, Sorption: 7.13%
[1]; 75.3 % RH, 25° C.
  Change in Mass (%) - dry, Desorption: 7.33%
  Change in Mass (%) - dry, Sorption: 7.32%
[1]; 84.8 % RH, 25° C.
  Change in Mass (%) - dry, Desorption: 7.66%
  Change in Mass (%) - dry, Sorption: 7.68%
[1]; 92.0 % RH, 25° C.
  Change in Mass (%) - dry, Desorption: 8.25%
  Change in Mass (%) - dry, Sorption: 8.31%
